{"source": "PubChem BioAssay (NCI)", "assay_in_all_cases": "NCI-60 cell line screen, 48 h", "key": {"HCC-2998 colon": {"system": "HCC-2998 colon"}, "HCT-116 colon": {"system": "HCT-116 colon"}, "HOP-92 NSCLC": {"system": "HOP-92 NSCLC"}, "K-562 leukemia": {"system": "K-562 leukemia"}, "M14 melanoma": {"system": "M14 melanoma"}, "NCI-H522 lung": {"system": "NCI-H522 lung"}, "RXF 393 renal": {"system": "RXF 393 renal"}, "SNB-19 CNS": {"system": "SNB-19 CNS"}}, "note": "Where “and” joins values, the source holds several entries; their conditions need not be identical. Identical values can stand only once.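 Growth conditions: 96-well plates. Treatment: test compound, 48 hours, 5 concentrations. Analysis: linear interpolation between bracketing concentrations; unreached endpoints set to highest concentration. GI50 = concentration required for 50% inhibition of growth. TGI is the concentration that stops growth completely.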"}
{"compound": "C=CC(=O)Nc1cc(C)ccc1Nc1nc(Nc2cc(OC)ncc2C)ncc1C(F)(F)F", "values": [{"measurement": "GI50", "setting": "HCC-2998 colon", "value": 0.261, "unit": "µM"}, {"measurement": "TGI", "setting": "HCC-2998 colon", "value": 4.34, "unit": "µM"}, {"measurement": "GI50", "setting": "HCT-116 colon", "value": 0.256, "unit": "µM"}, {"measurement": "TGI", "setting": "HCT-116 colon", "value": 1.31, "unit": "µM"}, {"measurement": "GI50", "setting": "HOP-92 NSCLC", "value": 0.188, "unit": "µM"}, {"measurement": "TGI", "setting": "HOP-92 NSCLC", "value": 0.981, "unit": "µM"}, {"measurement": "GI50", "setting": "K-562 leukemia", "value": 2.56, "unit": "µM"}, {"measurement": "TGI", "setting": "K-562 leukemia", "value": "> 100", "unit": "µM"}, {"measurement": "GI50", "setting": "M14 melanoma", "value": 0.0668, "unit": "µM"}, {"measurement": "TGI", "setting": "M14 melanoma", "value": 0.686, "unit": "µM"}, {"measurement": "GI50", "setting": "NCI-H522 lung", "value": 1.14, "unit": "µM"}, {"measurement": "TGI", "setting": "NCI-H522 lung", "value": "> 31.6", "unit": "µM"}, {"measurement": "GI50", "setting": "RXF 393 renal", "value": 0.352, "unit": "µM"}, {"measurement": "TGI", "setting": "RXF 393 renal", "value": 1.85, "unit": "µM"}, {"measurement": "GI50", "setting": "SNB-19 CNS", "value": 0.936, "unit": "µM"}, {"measurement": "TGI", "setting": "SNB-19 CNS", "value": "> 100", "unit": "µM"}]}
{"compound": "C[n+]1c2cc(N)ccc2cc2ccc(N)cc21", "values": [{"measurement": "GI50", "setting": "HCC-2998 colon", "value": "925 nM [middle of 4 runs]"}, {"measurement": "TGI", "setting": "HCC-2998 colon", "value": "3.43 µM [middle of 4 runs]"}, {"measurement": "GI50", "setting": "HCT-116 colon", "value": "622 nM [middle of 4 runs]"}, {"measurement": "TGI", "setting": "HCT-116 colon", "value": "5.55 µM and 11.1 µM and 5.51 µM"}, {"measurement": "TGI", "setting": "HOP-92 NSCLC", "value": "5.78 µM [middle of 4 runs]"}, {"measurement": "GI50", "setting": "K-562 leukemia", "value": "1.18 µM [middle of 4 runs]"}, {"measurement": "GI50", "setting": "M14 melanoma", "value": "1.68 µM [middle of 4 runs]"}, {"measurement": "TGI", "setting": "M14 melanoma", "value": "3.75 µM [middle of 4 runs]"}, {"measurement": "GI50", "setting": "NCI-H522 lung", "value": "917 nM [middle of 4 runs]"}, {"measurement": "TGI", "setting": "NCI-H522 lung", "value": "3.68 µM [middle of 4 runs]"}, {"measurement": "TGI", "setting": "RXF 393 renal", "value": "3.59 µM [middle of 4 runs]"}, {"measurement": "GI50", "setting": "SNB-19 CNS", "value": "933 nM [middle of 4 runs]"}, {"measurement": "TGI", "setting": "SNB-19 CNS", "value": "5.01 µM [middle of 4 runs]"}]}
{"compound": "O=C(Cc1ccc(F)c(F)c1)Nc1cc(C2(C(F)(F)F)CC2)nn1Cc1ccccc1", "values": [{"measurement": "GI50", "setting": "HCC-2998 colon", "value": 4.77, "unit": "µM"}, {"measurement": "TGI", "setting": "HCC-2998 colon", "value": "> 15", "unit": "µM"}, {"measurement": "GI50", "setting": "HCT-116 colon", "value": 4.28, "unit": "µM"}, {"measurement": "TGI", "setting": "HCT-116 colon", "value": "> 15", "unit": "µM"}, {"measurement": "GI50", "setting": "HOP-92 NSCLC", "value": 2.32, "unit": "µM"}, {"measurement": "TGI", "setting": "HOP-92 NSCLC", "value": 8.75, "unit": "µM"}, {"measurement": "GI50", "setting": "K-562 leukemia", "value": 5.01, "unit": "µM"}, {"measurement": "TGI", "setting": "K-562 leukemia", "value": "> 15", "unit": "µM"}, {"measurement": "GI50", "setting": "M14 melanoma", "value": 5.66, "unit": "µM"}, {"measurement": "TGI", "setting": "M14 melanoma", "value": "> 15", "unit": "µM"}, {"measurement": "GI50", "setting": "NCI-H522 lung", "value": 3.08, "unit": "µM"}, {"measurement": "TGI", "setting": "NCI-H522 lung", "value": 9.89, "unit": "µM"}, {"measurement": "GI50", "setting": "RXF 393 renal", "value": 2.65, "unit": "µM"}, {"measurement": "TGI", "setting": "RXF 393 renal", "value": 12.2, "unit": "µM"}, {"measurement": "GI50", "setting": "SNB-19 CNS", "value": 4.54, "unit": "µM"}, {"measurement": "TGI", "setting": "SNB-19 CNS", "value": "> 15", "unit": "µM"}]}
{"compound": "CC(C)O/N=C/c1cc(NC(=S)OC(C)C)ccc1Cl", "values": [{"measurement": "TGI", "setting": "HCC-2998 colon", "value": "> 75.3", "unit": "µM"}, {"measurement": "TGI", "setting": "HCT-116 colon", "value": "> 74.3", "unit": "µM"}, {"measurement": "TGI", "setting": "HOP-92 NSCLC", "value": 99.8, "unit": "µM"}, {"measurement": "TGI", "setting": "K-562 leukemia", "value": "> 53.4", "unit": "µM"}, {"measurement": "TGI", "setting": "M14 melanoma", "value": "> 95.6", "unit": "µM"}, {"measurement": "TGI", "setting": "NCI-H522 lung", "value": "> 67.4", "unit": "µM"}, {"measurement": "TGI", "setting": "RXF 393 renal", "value": 52.9, "unit": "µM"}, {"measurement": "TGI", "setting": "SNB-19 CNS", "value": "> 72.4", "unit": "µM"}]}
{"compound": "Cc1nc2ccccc2c(/C=C/c2ccc(Cl)cc2)c1C(=O)/C=C/c1ccc(C(F)(F)F)cc1", "values": [{"measurement": "GI50", "setting": "HCC-2998 colon", "value": 0.393, "unit": "µM"}, {"measurement": "TGI", "setting": "HCC-2998 colon", "value": 1.35, "unit": "µM"}, {"measurement": "GI50", "setting": "HCT-116 colon", "value": 0.192, "unit": "µM"}, {"measurement": "TGI", "setting": "HCT-116 colon", "value": 0.652, "unit": "µM"}, {"measurement": "GI50", "setting": "HOP-92 NSCLC", "value": 1.07, "unit": "µM"}, {"measurement": "TGI", "setting": "HOP-92 NSCLC", "value": 2.47, "unit": "µM"}, {"measurement": "GI50", "setting": "K-562 leukemia", "value": 0.31, "unit": "µM"}, {"measurement": "TGI", "setting": "K-562 leukemia", "value": "> 100", "unit": "µM"}, {"measurement": "GI50", "setting": "M14 melanoma", "value": 0.41, "unit": "µM"}, {"measurement": "TGI", "setting": "M14 melanoma", "value": 1.88, "unit": "µM"}, {"measurement": "GI50", "setting": "NCI-H522 lung", "value": 0.198, "unit": "µM"}, {"measurement": "TGI", "setting": "NCI-H522 lung", "value": 0.838, "unit": "µM"}, {"measurement": "GI50", "setting": "RXF 393 renal", "value": 0.322, "unit": "µM"}, {"measurement": "TGI", "setting": "RXF 393 renal", "value": 0.988, "unit": "µM"}, {"measurement": "GI50", "setting": "SNB-19 CNS", "value": 0.722, "unit": "µM"}, {"measurement": "TGI", "setting": "SNB-19 CNS", "value": 1.97, "unit": "µM"}]}
{"compound": "[N-]=[N+]=NCCCCCC(=O)OC(C(=O)c1ccccc1)c1cccc(OCC(=O)NCCOCCOCCNC(=O)CCCC[C@@H]2SC[C@@H]3NC(=O)N[C@@H]32)c1", "note": "(some centres undefined)", "values": [{"measurement": "GI50", "setting": "HCC-2998 colon", "value": 39.6, "unit": "µM"}, {"measurement": "TGI", "setting": "HCC-2998 colon", "value": "> 100", "unit": "µM"}, {"measurement": "GI50", "setting": "HCT-116 colon", "value": 67.2, "unit": "µM"}, {"measurement": "TGI", "setting": "HCT-116 colon", "value": "> 100", "unit": "µM"}, {"measurement": "GI50", "setting": "HOP-92 NSCLC", "value": 34.9, "unit": "µM"}, {"measurement": "TGI", "setting": "HOP-92 NSCLC", "value": "> 100", "unit": "µM"}, {"measurement": "GI50", "setting": "K-562 leukemia", "value": 62.9, "unit": "µM"}, {"measurement": "TGI", "setting": "K-562 leukemia", "value": "> 100", "unit": "µM"}, {"measurement": "GI50", "setting": "M14 melanoma", "value": "> 100", "unit": "µM"}, {"measurement": "TGI", "setting": "M14 melanoma", "value": "> 100", "unit": "µM"}, {"measurement": "GI50", "setting": "NCI-H522 lung", "value": "> 100", "unit": "µM"}, {"measurement": "TGI", "setting": "NCI-H522 lung", "value": "> 100", "unit": "µM"}, {"measurement": "GI50", "setting": "RXF 393 renal", "value": 56.3, "unit": "µM"}, {"measurement": "TGI", "setting": "RXF 393 renal", "value": "> 100", "unit": "µM"}, {"measurement": "GI50", "setting": "SNB-19 CNS", "value": "> 100", "unit": "µM"}, {"measurement": "TGI", "setting": "SNB-19 CNS", "value": "> 100", "unit": "µM"}]}
{"compound": "COc1cc(N(C)C)c(OC)cc1/C=C\\c1ccnc2ccccc12", "values": [{"measurement": "TGI", "setting": "HCC-2998 colon", "value": "> 10", "unit": "µM"}, {"measurement": "TGI", "setting": "HCT-116 colon", "value": "> 10", "unit": "µM"}, {"measurement": "TGI", "setting": "HOP-92 NSCLC", "value": 9.42, "unit": "µM"}, {"measurement": "TGI", "setting": "K-562 leukemia", "value": "> 10", "unit": "µM"}, {"measurement": "TGI", "setting": "M14 melanoma", "value": "> 10", "unit": "µM"}, {"measurement": "TGI", "setting": "NCI-H522 lung", "value": "> 10", "unit": "µM"}, {"measurement": "TGI", "setting": "RXF 393 renal", "value": "> 10", "unit": "µM"}, {"measurement": "TGI", "setting": "SNB-19 CNS", "value": "> 10", "unit": "µM"}]}
{"compound": "COc1cc(C(=O)N2CCN(c3ncnc4ccccc34)CC2)c(N)cc1OCc1ccccc1", "values": [{"measurement": "GI50", "setting": "HCC-2998 colon", "value": 16.6, "unit": "µM"}, {"measurement": "TGI", "setting": "HCC-2998 colon", "value": 30.3, "unit": "µM"}, {"measurement": "GI50", "setting": "HCT-116 colon", "value": 10.7, "unit": "µM"}, {"measurement": "TGI", "setting": "HCT-116 colon", "value": 22.6, "unit": "µM"}, {"measurement": "GI50", "setting": "HOP-92 NSCLC", "value": 15.4, "unit": "µM"}, {"measurement": "TGI", "setting": "HOP-92 NSCLC", "value": 36.3, "unit": "µM"}, {"measurement": "GI50", "setting": "K-562 leukemia", "value": 16.1, "unit": "µM"}, {"measurement": "TGI", "setting": "K-562 leukemia", "value": 42.8, "unit": "µM"}, {"measurement": "GI50", "setting": "M14 melanoma", "value": 15.2, "unit": "µM"}, {"measurement": "TGI", "setting": "M14 melanoma", "value": 28.6, "unit": "µM"}, {"measurement": "GI50", "setting": "NCI-H522 lung", "value": 5.71, "unit": "µM"}, {"measurement": "TGI", "setting": "NCI-H522 lung", "value": 26.8, "unit": "µM"}, {"measurement": "GI50", "setting": "RXF 393 renal", "value": 13.1, "unit": "µM"}, {"measurement": "TGI", "setting": "RXF 393 renal", "value": 27, "unit": "µM"}, {"measurement": "GI50", "setting": "SNB-19 CNS", "value": 13.7, "unit": "µM"}, {"measurement": "TGI", "setting": "SNB-19 CNS", "value": 29.8, "unit": "µM"}]}
